Source: patent US8476298B2 (Exelixis, Inc., priority 2003, dated 2013)
Where two headings read alike, the source gives them in different places.

Tests used:
[1] = target: T1, KDR (baculovirus expressed human KDR kinase domain D807-V1356) (Homo sapiens, UniProt P35968); test: biochemical;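 further: Luciferase-coupled chemiluminescent kinase assay, activity read as percent ATP left after 4 h reaction at ambient temperature, ATP near KM, 10-point dose-response in 384-well plates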
T1 construct: human KDR kinase domain D807-V1356; host or cells: baculovirus expression
T1 sequence (P35968 807-1356): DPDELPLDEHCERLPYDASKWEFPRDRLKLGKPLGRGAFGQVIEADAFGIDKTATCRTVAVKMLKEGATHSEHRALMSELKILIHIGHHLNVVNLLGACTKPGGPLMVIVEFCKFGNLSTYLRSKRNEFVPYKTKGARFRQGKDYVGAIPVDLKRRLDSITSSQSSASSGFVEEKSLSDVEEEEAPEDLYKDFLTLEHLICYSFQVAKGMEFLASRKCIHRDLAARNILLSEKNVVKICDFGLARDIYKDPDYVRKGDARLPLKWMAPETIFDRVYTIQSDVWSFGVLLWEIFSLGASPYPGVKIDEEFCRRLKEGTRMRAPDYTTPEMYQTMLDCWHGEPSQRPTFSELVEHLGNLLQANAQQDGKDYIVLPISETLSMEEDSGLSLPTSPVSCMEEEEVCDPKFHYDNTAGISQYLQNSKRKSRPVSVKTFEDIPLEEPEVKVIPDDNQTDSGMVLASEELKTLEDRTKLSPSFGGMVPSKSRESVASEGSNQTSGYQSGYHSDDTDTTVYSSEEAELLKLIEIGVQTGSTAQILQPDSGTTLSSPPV

[2] = target: T2, Flt-4 (baculovirus expressed human Flt-4 kinase domain D725-R1298) (Homo sapiens, UniProt P35916); test: flt-4 Alphascreen Tyrosine Kinase assay; type: biochemical; conditions: read-out: flt4 IC50;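 further: AlphaScreen chemiluminescence read-out of biotinylated poly(Glu,Tyr) 4:1 phosphorylation via streptavidin donor and PY100 anti-phosphotyrosine acceptor beads, ATP near KM, 1 hr kinase reaction, 10-point dose-response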
T2 construct: human Flt-4 kinase domain D725-R1298; host or cells: baculovirus expression
T2 sequence (P35916 725-1298 isoform P35916-1): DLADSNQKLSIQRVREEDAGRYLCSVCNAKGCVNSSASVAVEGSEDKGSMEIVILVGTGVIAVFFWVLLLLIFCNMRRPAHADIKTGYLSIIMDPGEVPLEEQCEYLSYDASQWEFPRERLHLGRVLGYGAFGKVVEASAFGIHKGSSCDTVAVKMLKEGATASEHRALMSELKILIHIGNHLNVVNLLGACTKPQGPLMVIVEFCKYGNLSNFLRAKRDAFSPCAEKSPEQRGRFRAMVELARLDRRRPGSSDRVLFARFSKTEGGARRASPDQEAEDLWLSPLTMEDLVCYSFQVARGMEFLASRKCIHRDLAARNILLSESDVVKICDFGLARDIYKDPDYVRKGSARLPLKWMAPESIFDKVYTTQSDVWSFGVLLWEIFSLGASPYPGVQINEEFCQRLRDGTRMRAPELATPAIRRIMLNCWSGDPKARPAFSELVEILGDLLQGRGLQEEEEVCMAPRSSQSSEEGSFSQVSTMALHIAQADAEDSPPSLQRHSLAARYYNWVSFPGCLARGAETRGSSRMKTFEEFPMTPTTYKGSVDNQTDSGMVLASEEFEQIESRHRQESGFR

c-Kit kinase = c-Kit kinase (Homo sapiens, UniProt P10721); test: c-Kit AlphaScreen kinase assay; type: biochemical;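 further: c-Kit kinase phosphorylating biotinylated poly(Glu,Tyr), ATP near its KM, 1 h reaction at ambient temperature, AlphaScreen chemiluminescence with streptavidin donor and anti-phosphotyrosine acceptor beads, 10-point inhibitor titration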
Chain of c-Kit kinase (P10721 26-976): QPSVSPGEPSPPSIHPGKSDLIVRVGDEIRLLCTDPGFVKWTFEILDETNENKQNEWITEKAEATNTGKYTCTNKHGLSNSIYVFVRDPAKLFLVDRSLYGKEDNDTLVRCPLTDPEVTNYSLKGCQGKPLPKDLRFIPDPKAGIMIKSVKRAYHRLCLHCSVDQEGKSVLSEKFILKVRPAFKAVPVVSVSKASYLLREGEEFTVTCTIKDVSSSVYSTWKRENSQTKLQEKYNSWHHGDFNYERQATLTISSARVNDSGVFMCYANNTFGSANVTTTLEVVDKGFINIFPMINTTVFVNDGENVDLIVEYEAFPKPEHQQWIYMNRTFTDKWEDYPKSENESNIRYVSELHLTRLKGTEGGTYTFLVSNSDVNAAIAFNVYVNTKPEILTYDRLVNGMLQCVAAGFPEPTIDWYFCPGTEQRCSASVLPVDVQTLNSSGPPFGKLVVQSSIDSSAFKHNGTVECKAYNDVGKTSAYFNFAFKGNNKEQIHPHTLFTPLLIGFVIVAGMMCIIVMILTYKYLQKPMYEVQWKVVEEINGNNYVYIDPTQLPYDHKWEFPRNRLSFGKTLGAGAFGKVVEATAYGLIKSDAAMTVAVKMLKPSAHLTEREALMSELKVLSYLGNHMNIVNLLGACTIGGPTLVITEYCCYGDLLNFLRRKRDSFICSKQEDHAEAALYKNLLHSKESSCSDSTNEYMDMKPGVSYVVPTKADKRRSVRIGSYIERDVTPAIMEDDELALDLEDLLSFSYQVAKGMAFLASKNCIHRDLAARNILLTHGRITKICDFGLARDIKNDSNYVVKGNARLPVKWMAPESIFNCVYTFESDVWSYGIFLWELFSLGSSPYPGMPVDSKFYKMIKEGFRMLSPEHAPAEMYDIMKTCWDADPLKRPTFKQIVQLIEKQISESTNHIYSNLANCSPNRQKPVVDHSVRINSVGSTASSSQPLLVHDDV

[3] = target: T3, c-Met (baculovirus expressed human c-Met kinase domain P948-S1343) (Homo sapiens, UniProt P08581); test: c-Met Luciferase-Coupled Chemiluminescent Kinase assay (LCCA); type: biochemical;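 further: kinase activity read as percent ATP left after reaction, by luciferase-luciferin chemiluminescence, with 1 µM ATP and 1 µM poly-EY substrate, 2 h at ambient temperature, 10-point dose-response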
T3 construct: human c-Met kinase domain P948-S1343; host or cells: baculovirus expression
T3 sequence (P08581 1011-1343 limits assumed): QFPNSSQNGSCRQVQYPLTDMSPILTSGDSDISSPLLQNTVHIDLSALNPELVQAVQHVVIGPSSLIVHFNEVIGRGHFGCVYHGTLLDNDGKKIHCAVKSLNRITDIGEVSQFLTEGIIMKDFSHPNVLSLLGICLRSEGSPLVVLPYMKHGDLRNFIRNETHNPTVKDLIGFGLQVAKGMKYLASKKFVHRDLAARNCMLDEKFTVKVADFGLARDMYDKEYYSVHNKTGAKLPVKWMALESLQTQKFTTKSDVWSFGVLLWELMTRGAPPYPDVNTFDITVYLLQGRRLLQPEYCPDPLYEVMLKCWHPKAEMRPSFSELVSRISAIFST

[4] = target: T4, Flt-3 (baculovirus expressed human Flt-3 kinase domain R571-S993) (Homo sapiens, UniProt P36888); test: biochemical; conditions: read-out: flt3 IC50;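 further: Luciferase-coupled chemiluminescent kinase assay, activity read as percent ATP left after a 3 h reaction at room temperature, ATP near KM, 10-point dose-response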
T4 construct: human Flt-3 kinase domain R571-S993; host or cells: baculovirus expression
T4 sequence (P36888 571-993): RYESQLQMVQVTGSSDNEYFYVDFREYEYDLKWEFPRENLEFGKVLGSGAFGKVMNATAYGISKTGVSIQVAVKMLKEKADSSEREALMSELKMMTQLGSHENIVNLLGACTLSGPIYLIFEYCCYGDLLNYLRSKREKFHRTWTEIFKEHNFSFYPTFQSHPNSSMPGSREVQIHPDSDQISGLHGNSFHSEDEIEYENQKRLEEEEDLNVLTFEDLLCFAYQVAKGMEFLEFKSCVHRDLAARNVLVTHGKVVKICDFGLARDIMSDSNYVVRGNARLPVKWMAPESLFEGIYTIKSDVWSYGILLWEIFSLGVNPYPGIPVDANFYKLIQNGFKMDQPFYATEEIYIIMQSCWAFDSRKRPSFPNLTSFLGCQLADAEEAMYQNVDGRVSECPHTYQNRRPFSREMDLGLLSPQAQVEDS

[5] = Table 4, inhibition as IC50 class

IC50 [1, 5] [nM] | IC50 [2, 5] [nM] | IC50 (c-Kit kinase; [5]) [nM] | IC50 [3, 5] [nM] | IC50 [4, 5] [nM] | IC50 [1] [nM] | IC50 [2] [nM] | IC50 (c-Kit kinase) [nM] | IC50 [3] [nM] | IC50 [4] [nM] | SMILES
50 to 500 | 50 to 500 | 50 to 500 | < 50 | < 50 |  |  |  |  |  | COc1cc2c(Oc3ncc(NC(=O)CC(=O)Nc4ccc(F)cc4)cc3Cl)ccnc2cc1OCCCN1CCCCC1 [Example 265, N-[5-chloro-6-({6-(methyloxy)-7-[(3-piperidin-1-ylpropyl)oxy]quinolin-4-yl}oxy)pyridin-3-yl]-N′-(4-fluorophenyl)propanediamide]
50 to 500 | 50 to 500 | 50 to 500 | < 50 | < 50 |  |  |  |  |  | COc1cc2c(Oc3ncc(NC(=O)CC(=O)Nc4ccc(F)cc4)cc3Cl)ccnc2cc1OCCCN1CCOCC1 [Example 266, N-[5-chloro-6-({6-(methyloxy)-7-[(3-morpholin-4-ylpropyl)oxy]quinolin-4-yl}oxy)pyridin-3-yl]-N′-(4-fluorophenyl)propanediamide]
50 to 500 | 50 to 500 | 50 to 500 | < 50 | < 50 |  |  |  |  |  | CCN(CC)CCCOc1cc2nccc(Oc3ncc(NC(=O)CC(=O)Nc4ccc(F)cc4)cc3Cl)c2cc1OC [Example 267, N-(5-chloro-6-{[7-{[3-(diethylamino)propyl]oxy}-6-(methyloxy)quinolin-4-yl]oxy}pyridin-3-yl)-N′-(4-fluorophenyl)propanediamide]
50 to 500 | 50 to 500 | 50 to 500 | < 50 | 50 to 500 |  |  |  |  |  | CCCCc1ccc(CNC(=O)C(=O)Nc2ccc(Oc3ccnc4cc(OCC5CCNCC5)c(OC)cc34)c(F)c2)cc1 [Example 270, N-[(4-butylphenyl)methyl]-N′-[3-fluoro-4-({6-(methyloxy)-7-[(piperidin-4-ylmethyl)oxy]quinolin-4-yl}oxy)phenyl]ethanediamide]
50 to 500 | 50 to 500 | 50 to 500 | < 50 | < 50 |  |  |  |  |  | COc1cc2c(Oc3ccc(NC(=O)C(=O)NCCc4ccc(C)cc4)cc3F)ccnc2cc1OCC1CCNCC1 [Example 271, N-[3-fluoro-4-({6-(methyloxy)-7-[(piperidin-4-ylmethyl)oxy]quinolin-4-yl}oxy)phenyl]-N′-[2-(4-methylphenyl)ethyl]ethanediamide]
50 to 500 | 50 to 500 | 50 to 500 | < 50 | 50 to 500 |  |  |  |  |  | COc1cc2c(Oc3ccc(NC(=O)C(=O)NCc4ccccn4)cc3F)ccnc2cc1OCC1CCNCC1 [Example 274, N-[3-fluoro-4-({6-(methyloxy)-7-[(piperidin-4-ylmethyl)oxy]quinolin-4-yl}oxy)phenyl]-N′-(pyridin-2-ylmethyl)ethanediamide]
< 50 | < 50 | < 50 | < 50 | < 50 |  |  |  |  |  | COc1cc2c(Oc3ccc(NC(=O)C(=O)NCCc4ccccc4)cc3F)ncnc2cc1OCC1CCNCC1 [Example 275, N-[3-fluoro-4-({6-(methyloxy)-7-[(piperidin-4-ylmethyl)oxy]quinazolin-4-yl}oxy)phenyl]-N′-(2-phenylethyl)ethanediamide]
< 50 | < 50 | < 50 | < 50 | < 50 |  |  |  |  |  | COc1cc2c(Oc3ccc(NC(=O)C(=O)NCCc4ccccc4)cc3F)ncnc2cc1OCC1CCN(C)CC1 [Example 276, N-{3-fluoro-4-[(6-(methyloxy)-7-{[(1-methylpiperidin-4-yl)methyl]oxy}quinazolin-4-yl)oxy]phenyl}-N′-(2-phenylethyl)ethanediamide]
< 50 | < 50 | < 50 | < 50 | < 50 |  |  |  |  |  | COc1cc2c(Oc3ccc(NC(=O)C(=O)NCc4cccc(C(F)(F)F)c4F)cc3F)ccnc2cc1OCC1CCNCC1 [Example 277, N-[3-fluoro-4-({6-(methyloxy)-7-[(piperidin-4-ylmethyl)oxy]quinolin-4-yl}oxy)phenyl]-N′-{[2-fluoro-3-(trifluoromethyl)phenyl]methyl}ethanediamide]
50 to 500 | 50 to 500 | 50 to 500 | 50 to 500 | < 50 |  |  |  |  |  | COc1ccc(CCN(C)C(=O)C(=O)Nc2ccc(Oc3ccnc4cc(OCC5CCNCC5)c(OC)cc34)c(F)c2)cc1OC [Example 279, N-{2-[3,4-bis(methyloxy)phenyl]ethyl}-N′-[3-fluoro-4-({6-(methyloxy)-7-[(piperidin-4-ylmethyl)oxy]quinolin-4-yl}oxy)phenyl]-N-methylethanediamide]
< 50 | < 50 | < 50 | < 50 | < 50 |  |  |  |  |  | COc1ccc(Br)cc1CCNC(=O)C(=O)Nc1ccc(Oc2ccnc3cc(OCC4CCNCC4)c(OC)cc23)c(F)c1 [Example 280, N-{2-[5-bromo-2-(methyloxy)phenyl]ethyl}-N′-[3-fluoro-4-({6-(methyloxy)-7-[(piperidin-4-ylmethyl)oxy]quinolin-4-yl}oxy)phenyl]ethanediamide]
< 50 | 50 to 500 | 50 to 500 | < 50 | < 50 |  |  |  |  |  | COc1cc2c(Oc3ccc(NC(=O)C(=O)NCc4cc(C(F)(F)F)ccc4F)cc3F)ccnc2cc1OCC1CCNCC1 [Example 281, N-[3-fluoro-4-({6-(methyloxy)-7-[(piperidin-4-ylmethyl)oxy]quinolin-4-yl}oxy)phenyl]-N′-{[2-fluoro-5-(trifluoromethyl)phenyl]methyl}ethanediamide]
 |  |  |  |  | < 50 | < 50 | < 50 | < 50 | < 50 | COc1cc2c(Oc3ncc(NC(=O)C4(C(=O)Nc5ccc(F)cc5)CC4)cc3Cl)ccnc2cc1OCC1CCNCC1 [Example 282, N-[5-chloro-6-({6-(methyloxy)-7-[(piperidin-4-ylmethyl)oxy]quinolin-4-yl}oxy)pyridin-3-yl]-N′-(4-fluorophenyl)cyclopropane-1,1-dicarboxamide]
 |  |  |  |  | < 50 | 50 to 500 | 50 to 500 | < 50 | < 50 | COc1cc2c(Oc3ccc(NC(=O)C(=O)NC(C)c4ccc(F)cc4)cc3F)ccnc2cc1OCC1CCNCC1 (centres unmarked) [Example 283, N-[3-fluoro-4-({6-(methyloxy)-7-[(piperidin-4-ylmethyl)oxy]quinolin-4-yl}oxy)phenyl]-N′-[1-(4-fluorophenyl)ethyl]ethanediamide]
 |  |  |  |  | 500 to 5000 | 500 to 5000 | 50 to 500 | < 50 | 50 to 500 | COc1cc2c(Oc3ccc(NC(=O)C(=O)N[C@@H](Cc4ccccc4)C(=O)N4CCCC4)cc3F)ccnc2cc1OCC1CCNCC1 [Example 284, N-[3-fluoro-4-({6-(methyloxy)-7-[(piperidin-4-ylmethyl)oxy]quinolin-4-yl}oxy)phenyl]-N′-[(1S)-2-oxo-1-(phenylmethyl)-2-pyrrolidin-1-ylethyl]ethanediamide]
 |  |  |  |  | < 50 | < 50 | < 50 | < 50 | < 50 | COc1cc2c(Oc3ccc(NC(=O)C(=O)NCCc4ccccc4)cc3F)ncnc2cc1OCC1C[C@H]2CNC[C@H]2C1 (stereo partly drawn) [Example 285, N-{3-fluoro-4-[(6-(methyloxy)-7-{[(3aR,6aS)-octahydrocyclopenta[c]pyrrol-5-ylmethyl]oxy}quinazolin-4-yl)oxy]phenyl}-N′-(2-phenylethyl)ethanediamide]
 |  |  |  |  | 50 to 500 | 50 to 500 | 50 to 500 | < 50 | 50 to 500 | COc1cc2c(Oc3ccc(NC(=O)C(=O)NCCc4ccc(N)cc4)cc3F)ccnc2cc1OCC1CCNCC1 [Example 286, N-[2-(4-aminophenyl)ethyl]-N′-[3-fluoro-4-({6-(methyloxy)-7-[(piperidin-4-ylmethyl)oxy]quinolin-4-yl}oxy)phenyl]ethanediamide]
 |  |  |  |  | < 50 | 50 to 500 | 50 to 500 | < 50 | < 50 | COc1cc2c(Oc3ccc(NC(=O)C(=O)N4CCC(Cc5ccccc5)CC4)cc3F)ccnc2cc1OCC1CCNCC1 [Example 287, N-[3-fluoro-4-({6-(methyloxy)-7-[(piperidin-4-ylmethyl)oxy]quinolin-4-yl}oxy)phenyl]-2-oxo-2-[4-(phenylmethyl)piperidin-1-yl]acetamide]
 |  |  |  |  | < 50 | < 50 | < 50 | < 50 | < 50 | COc1cc2nccc(Oc3ccc(NC(=O)CC(=O)Nc4ccc(F)cc4)cc3)c2cc1OC [Example 288, N-(4-{[6,7-bis(methyloxy)quinolin-4-yl]oxy}phenyl)-N′-(4-fluorophenyl)propanediamide]
